Laboratory results: paper PMC12254355 (Nature Communications, 2025)
Ends that are not written are not given here.

How the values were obtained:
E. coli ATCC 11775 = details: ATCC 11775, 24 h
human red blood cells = details: pH 7.4
K. pneumoniae ATCC 13883 = details: ATCC 13883, 24 h
HEK293T cells = details: for CC50 vs HEK293T cells (source data of Figure 4a): 24 h
E. coli AIC221 = details: AIC221, 24 h
[1] = system: E. faecium ATCC 700221 - VRE; details: ATCC 700221, 24 h
P. aeruginosa PAO1 = details: PAO1, 24 h
P. aeruginosa PA14 = details: PA14, 24 h
A. baumannii ATCC 19606 = details: ATCC 19606, 24 h
S. aureus ATCC 12600 = details: ATCC 12600, 24 h

Row | Sequence | Minimal Inhibitory Concentration, E. coli ATCC 11775 (-) (E. coli ATCC 11775) [µmol/L] | HC50 (human red blood cells) | Minimal Inhibitory Concentration, K. pneumoniae ATCC 13883 (-) (K. pneumoniae ATCC 13883) [µmol/L] | SIcytotoxicity (HEK293T cells) | CC50 vs HEK293T cells (source data of Figure 4a) (HEK293T cells) [µM] | Minimal Inhibitory Concentration, E. coli AIC221 (-) (E. coli AIC221) [µmol/L] | Minimal Inhibitory Concentration, E. faecium ATCC 700221 - VRE (+) [1] [µmol/L] | Minimal Inhibitory Concentration, P. aeruginosa PAO1 (-) (P. aeruginosa PAO1) [µmol/L] | Minimal Inhibitory Concentration, P. aeruginosa PA14 (-) (P. aeruginosa PA14) [µmol/L] | Minimal Inhibitory Concentration, A. baumannii ATCC 19606 (-) (A. baumannii ATCC 19606) [µmol/L] | Minimal Inhibitory Concentration, S. aureus ATCC 12600 (+) (S. aureus ATCC 12600) [µmol/L] | CC50 vs HEK293T cells (HEK293T cells) [µM]
1 | KFSVFSKILRSIAKVFKGVGKVRK [Arachnoserver-27] | 32 | 24.2 | 4 | 2.0 | 7.976 | 8 | 8 | – | – | – | – | –
2 | KIKWFKTMKSLAKFLAK [Arachnoserver-33] | 8 | 144.1 | 4 | 8.0 | – | 4 | 32 | 32 | 8 | 8 | – | –
3 | KIKWLKAMKSIAKFIAKK [Arachnoserver-5] | 2 | 46.7 | 2 | 7.0 | 13.96 | 2 | 8 | 4 | 2 | 8 | – | –
4 | KLKKLRKWIYRIV [UniprotKB-8] | 16 | 636.4 | 64 | 3.5 | 27.64 | – | 16 | – | – | 32 | – | –
5 | KLLKIGLKSFARVLKKVL [UniprotKB-1] | 8 | 34.9 | – | 2.5 | 10.13 | 4 | – | 8 | 8 | – | 16 | 10
6 | KNKRFIRNLRSNLYQKIIKSTKSLL [Arachnoserver-9] | 16 | 4947.0 | 16 | 2.9 | 23.56 | 8 | 16 | 16 | 16 | 32 | – | –
7 | KNKRFIRNLRSNLYQKIIKSTKSLL [UniprotKB-14] | 32 | 7.733e+045 | 32 | 5.7 | 45.94 | 8 | 32 | 32 | 32 | – | – | –
8 | KRFIRNLRSNLYQKIIKSTKSLLDLREKI [Arachnoserver-17] | 64 | 280.5 | 4 | 4.1 | 16.47 | 8 | – | – | – | – | – | –
9 | KWLKAMKSIAKFIAKKQMKKHL [Arachnoserver-32] | – | 19.2 | 16 | 1.9 | 7.568 | 64 | 4 | 8 | 16 | – | – | 8
10 | KYRRGVSPWLKKELVRLHNNLRSKVAGGK [Arachnoserver-31] | 8 | 1392.0 | 4 | 3.2 | 12.67 | 4 | 16 | – | 64 | – | – | 13
11 | LKLKSILGKLGVIL [UniprotKB-4] | – | 3.938e+054 | 64 | 0.7 | 10.49 | – | – | – | – | 64 | – | 10
12 | RKFKWGKLFSTAKKLYKKGKKLSKNKNFKKALK [UniprotKB-12] | 32 | 604.3 | – | 11.9 | 23.71 | 2 | 32 | 4 | 4 | 64 | – | –
13 | RKFKWGSFKKILSAGKKLFKKAKKLSK [Arachnoserver-2] | 8 | 108.1 | – | 9.9 | 9.929 | 1 | 8 | 4 | 4 | 32 | – | 10
14 | RKFKWGSFKKILSAGKKLFKKAKKLSKNKNFKKALK [Arachnoserver-6] | 32 | 12.1 | – | 1.3 | 5.173 | 4 | 8 | 4 | 4 | 64 | – | 5
15 | RKFNWGKLFKSAKKLYKTGKKLSKNKNVRKALKFGK [Arachnoserver-7] | 8 | 7.0 | 64 | 6.8 | 6.812 | 1 | 8 | 8 | 4 | 8 | – | 7
16 | RRVKRFKKFFMKLKKSVKKRVMKFFK [UniprotKB-5] | 32 | 103.8 | – | 1.1 | 8.885 | 32 | 8 | 8 | 8 | 64 | – | 9
17 | RRVKRFKKFFRKLKKSVKKRAKEFFK [ISOB-1] | 16 | 2001.0 | – | 28.9 | – | 8 | 16 | 4 | 8 | 64 | 64 | –
18 | VNSFKIGGFIKKLWRSKLAKKLRAK [UniprotKB-19] | 64 | 625.9 | – | 10.2 | 40.64 | 16 | 4 | 8 | 16 | 64 | – | –
